# Source: patent US20240369539A1, “AN ADHERENT CELL CULTURE METHOD FOR GENERATING TIGHT JUNCTION BETWEEN CELLS AND ITS PRODUCT APPLICATION” (ZHEJIANG UNIVERSITY, priority 2021, published 2024)
# Tests used:
# [1] = system: in vitro blood-brain barrier model (membranous cell sheet formed by endothelial cells)
# [2] = system: in vitro blood-brain barrier model (membranous cell sheet formed by endothelial cells); experiment: test of a blood-brain barrier toxic drug on the in vitro blood-brain barrier model; settings: FIG. 20
# Procedure: A test of a blood-brain barrier toxic drug is carried out to determine the response of the blood-brain barrier model constructed in the embodiment to the blood-brain barrier toxic drug.
SMILES,content detected in the lower chamber [1],barrier function of the blood-brain barrier model ([2]; after self-recovery for 24 hours following drug treatment),barrier function of the blood-brain barrier model ([2]; after treatment with the blood-brain barrier toxic drug)
N[C@@H](Cc1ccc(O)c(O)c1)C(=O)O [L-dopamine],significantly higher than that of the dopamine,,
NCCc1ccc(O)c(O)c1 [dopamine],the content of the L-dopamine detected in the lower chamber is significantly higher than that of the dopamine,,
CN[C@@H](C)Cc1ccccc1 [methamphetamine],,significantly improved,significantly reduced
